The results in this text go back to paper PMC6522510 (Nature Communications, 2019).

Among the test systems are ML-2; M07e; CMS; MOLM-13; CMK; CHRF288-11; MV4-11; U937.
Set-up in all cases: species or system AML cell lines (8); Primary HTS, single concentration about 10 uM, Cell Titer Glo viability; log10 luminescence, per cent inhibition relative to cycloheximide control
Conditions in all cases: 72 h, relative to cycloheximide control, log10 luminescence; inhibitor
A general note: Cellular ATP, detected with luciferase, serves as a proxy for viable cell number.

On to `CCOc1ccccc1CCN=C1NC(=O)/C(=C/c2ccc3ncccc3c2)S1` [SJ000581120-1], for which, in the assay with ML-2, the ML-2 %inh was 18.56%. The M07e %inh in the assay on M07e is recorded as 13.3%. In addition, in the assay with CMS, the CMS %inh came out at 5.975%. This molecule showed an MOLM-13 %inh in the assay with MOLM-13 of 1.703%. The CMK %inh with CMK is 13.66%. Further, the CHRF288-11 %inh in the assay with CHRF288-11 is -1.679%. Besides, the MV4-11 %inh in the assay on MV4-11 came out at 0.5335%. In addition, the U937 %inh in the assay on U937 amounted to 6.277%.
On to `Cn1c(=O)c(Oc2ccc(F)cc2F)cc2cnc(N[C@H]3CCOC3)nc21` [SJ000581121-1], for which, in the assay on ML-2, the ML-2 %inh turned out to be 0.08921%. In the assay on M07e, this molecule gave an M07e %inh of 5.749%. Moreover, the CMS %inh with CMS is 4.412%. In the assay with MOLM-13, this molecule gave an MOLM-13 %inh of 1.492%. The CMK %inh in the assay on CMK was determined as 3.547%. Besides, the CHRF288-11 %inh with CHRF288-11 is given as -0.8909%. In the assay on MV4-11, the MV4-11 %inh is listed as 2.632%. Moreover, the U937 %inh in the assay with U937 worked out at 1.362%.
`Nc1c(C(=O)c2ccccc2)cnn1-c1ccc(F)cc1` [SJ000581122-1]: in the assay with ML-2, the ML-2 %inh worked out at 1.652%. In the assay on M07e, the M07e %inh came to 10.33%. In addition, the CMS %inh in the assay on CMS is -0.3703%. Also, the MOLM-13 %inh in the assay on MOLM-13 was determined as 2.618%. Further, the CMK %inh in the assay on CMK came out at 1.79%. The CHRF288-11 %inh in the assay on CHRF288-11 is -5.198%. Further, the MV4-11 %inh in the assay with MV4-11 was -1.368%. Also, in the assay with U937, the U937 %inh is given as -0.682%.
In the case of `N#Cc1cccc(C(=O)c2cnn(-c3ccc(F)cc3)c2N)c1` [SJ000581124-1], the ML-2 %inh in the assay on ML-2 is recorded as 1.377%. In the assay on M07e, this molecule gave an M07e %inh of 5.547%. Moreover, in the assay with CMS, the CMS %inh came to 0.5963%. Further, the MOLM-13 %inh in the assay on MOLM-13 was found to be 0.9707%. For the same molecule, the CMK %inh in the assay with CMK is given as 1.804%. The CHRF288-11 %inh in the assay on CHRF288-11 is -6.686%. The MV4-11 %inh in the assay on MV4-11 was -1.446%. The U937 %inh in the assay with U937 was found to be 2.317%.
With `Cn1cc(C2=C(c3cn(CCN)c4ccccc34)C(=O)NC2=O)c2ccccc21` [SJ000581125-1], the ML-2 %inh in the assay on ML-2 was found to be 0.3075%. The molecule also displayed an M07e %inh in the assay on M07e of 2.044%. Further, the CMS %inh in the assay on CMS stood at 4.695%. For the same molecule, the MOLM-13 %inh with MOLM-13 is recorded as 2.432%. In addition, the CMK %inh in the assay on CMK is reported as 4.026%. Further, the CHRF288-11 %inh in the assay on CHRF288-11 is -0.3568%. Further, the MV4-11 %inh with MV4-11 is 10.77%. Also, the U937 %inh in the assay with U937 is -0.6181%.
On to `CC(=O)N[C@@H](Cc1ccc(OP(=O)(O)O)cc1)C(=O)N[C@H]1CCC(=O)N2CCC[C@@H](C(=O)NCc3cccc4ccccc34)N2C1=O` [SJ000581126-1], for which, in the assay on ML-2, the ML-2 %inh is on record as -1.495%. In the assay on M07e, this molecule came in with an M07e %inh of 3.709%. Moreover, in the assay with CMS, the CMS %inh is reported as 3.071%. In addition, the MOLM-13 %inh in the assay with MOLM-13 is reported as 1.087%. For the same molecule, the CMK %inh with CMK was 0.6517%. Further, the CHRF288-11 %inh with CHRF288-11 is 5.32%. Also, the MV4-11 %inh in the assay with MV4-11 is reported as 0.5498%. For the same molecule, the U937 %inh in the assay with U937 was determined as 1.351%.
With `O=C1NC(=NCCCc2ccccc2)S/C1=C\c1ccc2ncccc2c1` [SJ000581127-1], the ML-2 %inh in the assay on ML-2 worked out at 2.496%. In the assay on M07e, the M07e %inh worked out at 6.993%. Further, the CMS %inh with CMS came out at 4.391%. The MOLM-13 %inh in the assay with MOLM-13 is 42.49%. The CMK %inh with CMK is 8.234%. In addition, the CHRF288-11 %inh in the assay on CHRF288-11 is reported as -2.357%. The MV4-11 %inh in the assay on MV4-11 was 18.37%. In addition, the U937 %inh with U937 was 2.066%.
Take `COc1cc[nH]c1/C=C1\C(=O)Nc2ccc([N+](=O)[O-])c(N3CC[C@@H](O)C3)c21` [SJ000581128-1]: the ML-2 %inh in the assay on ML-2 is 60.5%. The molecule further had an M07e %inh in the assay on M07e of 106%. The CMS %inh in the assay with CMS worked out at 95.24%. This molecule returned an MOLM-13 %inh in the assay on MOLM-13 of 123.9%. Further, the CMK %inh in the assay on CMK was determined as 98.31%. Further, in the assay with CHRF288-11, the CHRF288-11 %inh came out at 53.94%. Also, in the assay on MV4-11, the MV4-11 %inh is reported as 84.07%. Further, the U937 %inh in the assay on U937 amounted to 87.66%.
Take `O=C1NC(=NCCc2cccc(F)c2)S/C1=C\c1ccc2ncccc2c1` [SJ000581129-1]: the ML-2 %inh with ML-2 is on record as 47.36%. In the assay on M07e, this molecule yielded an M07e %inh of 27.94%. The CMS %inh with CMS stood at 28.27%. This molecule also had an MOLM-13 %inh in the assay on MOLM-13 of 21.32%. For the same molecule, the CMK %inh in the assay on CMK worked out at 94.55%. In addition, the CHRF288-11 %inh with CHRF288-11 is 23.25%. Further, in the assay with MV4-11, the MV4-11 %inh is reported as 43.95%. In addition, the U937 %inh in the assay with U937 came to 84.57%.
Regarding `OCCn1c(-c2ccncc2)c(-c2ccc(F)cc2)c2ncccc21` [SJ000581130-1], in the assay on ML-2, the ML-2 %inh is recorded as -0.1929%. For the same molecule, the M07e %inh in the assay with M07e was determined as 6.21%. Also, in the assay with CMS, the CMS %inh stood at 3.754%. In the assay with MOLM-13, this molecule returned an MOLM-13 %inh of 0.6818%. In addition, in the assay on CMK, the CMK %inh turned out to be 5.975%. Moreover, the CHRF288-11 %inh in the assay with CHRF288-11 is on record as 7.224%. Also, the MV4-11 %inh in the assay on MV4-11 turned out to be 4.176%. Further, in the assay with U937, the U937 %inh is listed as 1.305%.
In the case of `N#Cc1c(C(=O)c2ccccc2)cnn1-c1ccccc1` [SJ000581131-1], the ML-2 %inh with ML-2 is 0.5024%. This molecule also came in with an M07e %inh with M07e of 8.327%. For the same molecule, the CMS %inh with CMS turned out to be 1.498%. Besides, the MOLM-13 %inh in the assay on MOLM-13 is 1.329%. Moreover, in the assay with CMK, the CMK %inh is listed as -0.4032%. For the same molecule, the CHRF288-11 %inh in the assay on CHRF288-11 was 0.7045%. In addition, the MV4-11 %inh in the assay on MV4-11 amounted to 2.305%. In the assay on U937, the U937 %inh is -0.2486%.
`Nc1c(C(=O)c2ccc(-c3cccnc3)cc2)cnn1-c1ccc(F)cc1` [SJ000581132-1]: the ML-2 %inh with ML-2 is given as -1.014%. Moreover, the M07e %inh in the assay with M07e was found to be 5.04%. The CMS %inh with CMS is 7.229%. Also, the MOLM-13 %inh in the assay on MOLM-13 is 0.5666%. Besides, the CMK %inh in the assay with CMK is -0.6442%. In the assay with CHRF288-11, the CHRF288-11 %inh amounted to 1.549%. Besides, in the assay with MV4-11, the MV4-11 %inh was 2.713%. The U937 %inh with U937 is listed as -1.133%.
Regarding `CN1C[C@@H]2Cn3c(c(C4=C(c5cn(C)c6ccccc56)C(=O)NC4=O)c4ccccc43)C[C@H]2C1` [SJ000581133-2], in the assay on ML-2, the ML-2 %inh worked out at 1.581%. In the assay on M07e, this molecule returned an M07e %inh of 4.251%. In addition, the CMS %inh with CMS was -1.372%. The MOLM-13 %inh in the assay with MOLM-13 was 14.65%. The CMK %inh with CMK amounted to 11.96%. Also, in the assay on CHRF288-11, the CHRF288-11 %inh is 9.973%. Further, in the assay on MV4-11, the MV4-11 %inh is 12.86%. Further, the U937 %inh in the assay on U937 is given as 4.609%.
Regarding `O=C1NC(=NCc2ccccc2Cl)S/C1=C\c1ccc2ncccc2c1` [SJ000581134-1], the ML-2 %inh with ML-2 turned out to be 1.267%. Moreover, the M07e %inh in the assay with M07e came to 4.671%. The CMS %inh in the assay with CMS is reported as 2.499%. For the same molecule, in the assay on MOLM-13, the MOLM-13 %inh is 0.6384%. Moreover, in the assay with CMK, the CMK %inh is -0.8248%. The CHRF288-11 %inh in the assay with CHRF288-11 is reported as -1.242%. Besides, the MV4-11 %inh with MV4-11 turned out to be 3.2%. In addition, in the assay on U937, the U937 %inh is 2.507%.
Consider `O=C1NC(=N[C@@H]2C[C@H]2c2ccccc2)S/C1=C\c1ccc2ncccc2c1` [SJ000581135-1], for which the ML-2 %inh with ML-2 came to 0.9867%. The M07e %inh with M07e worked out at 3.343%. Further, in the assay on CMS, the CMS %inh is given as -0.3906%. For the same molecule, the MOLM-13 %inh in the assay with MOLM-13 was 1.012%. Further, the CMK %inh with CMK was -0.2461%. In addition, the CHRF288-11 %inh with CHRF288-11 is recorded as 1.296%. Moreover, the MV4-11 %inh in the assay on MV4-11 turned out to be 2.985%. In the assay with U937, the U937 %inh was 9.436%.
